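48-hour exposure; five concentrations; linearly interpolated endpoints. GI50 = concentration required for 50% inhibition of growth.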 Activity calls are given as the source filed them. Cut-off read from the data, not from the text of the source: active = GI50 up to about 1.1 µM and inactive = higher.
Assays:
Test in all cases: growth of human tumour cells (NCI), 48 h
IGROV-1 = tested on: IGROV-1
DU-145 = tested on: DU-145
CCRF-CEM = tested on: CCRF-CEM
SR = tested on: SR
CAKI-1 = tested on: CAKI-1
SNB-19 = tested on: SNB-19
DMS-273 = tested on: DMS-273
786-0 = tested on: 786-0
UACC-62 = tested on: UACC-62
Malme-3M = tested on: Malme-3M
A549 = tested on: A549
MCF7 = tested on: MCF7
SK-MEL-5 = tested on: SK-MEL-5
HOP-92 = tested on: HOP-92
Hs-578T = tested on: Hs-578T
MOLT-4 = tested on: MOLT-4
RXF 393 = tested on: RXF 393
COLO 205 = tested on: COLO 205
HCT-15 = tested on: HCT-15
ACHN = tested on: ACHN
NCI-H23 = tested on: NCI-H23
TK-10 = tested on: TK-10
HOP-62 = tested on: HOP-62
MDA-MB-231 = tested on: MDA-MB-231
NCI-H460 = tested on: NCI-H460
U-251 = tested on: U-251
MDA-N = tested on: MDA-N
KM12 = tested on: KM12
EKVX = tested on: EKVX
NCI/ADR-RES = tested on: NCI/ADR-RES
SK-OV-3 = tested on: SK-OV-3
M14 = tested on: M14
NCI-H522 = tested on: NCI-H522
M19-MEL = tested on: M19-MEL
SF-295 = tested on: SF-295
DLD-1 = tested on: DLD-1
K562 = tested on: K562
SW-620 = tested on: SW-620
SF-268 = tested on: SF-268
SK-MEL-2 = tested on: SK-MEL-2
UO-31 = tested on: UO-31
SN12C = tested on: SN12C
RPMI-8226 = tested on: RPMI-8226
A498 = tested on: A498
SNB-78 = tested on: SNB-78
BT-549 = tested on: BT-549
OVCAR-8 = tested on: OVCAR-8
LOX IMVI = tested on: LOX IMVI
SNB-75 = tested on: SNB-75
UACC-257 = tested on: UACC-257
LXFL 529 = tested on: LXFL 529
XF498 = tested on: XF498
HOP-18 = tested on: HOP-18
OVCAR-4 = tested on: OVCAR-4
T47D = tested on: T47D
SF-539 = tested on: SF-539
SK-MEL-28 = tested on: SK-MEL-28
NCI-H226 = tested on: NCI-H226
HL-60 = tested on: HL-60
OVCAR-3 = tested on: OVCAR-3
HT-29 = tested on: HT-29
HCC 2998 = tested on: HCC 2998
MDA-MB-435 = tested on: MDA-MB-435
HCT-116 = tested on: HCT-116
DMS-114 = tested on: DMS-114
OVCAR-5 = tested on: OVCAR-5
PC-3 = tested on: PC-3
KM-20L2 = tested on: KM-20L2

## O=C1CCC(c2ccccc2)=NN1c1nc2ccccc2s1
IGROV-1
  GI50: 34.9 µM (inactive)
DU-145
  GI50: 22.9 µM (inactive)
CCRF-CEM
  GI50: 23.1 µM (inactive)
SR
  GI50: 29.7 µM (inactive)
CAKI-1
  GI50: 32.4 µM (inactive)
SNB-19
  GI50: 35.6 µM (inactive)
DMS-273
  GI50: 40.2 µM (inactive)
786-0
  GI50: 38.3 µM (inactive)
UACC-62
  GI50: 30.3 µM (inactive)
Malme-3M
  GI50: 32.2 µM (inactive)
A549
  GI50: 35.9 µM (inactive)
MCF7
  GI50: 27 µM (inactive)
SK-MEL-5
  GI50: 20.4 µM (inactive)
HOP-92
  GI50: 26.7 µM (inactive)
Hs-578T
  GI50: 36 µM (inactive)
MOLT-4
  GI50: 28 µM (inactive)
RXF 393
  GI50: 15.4 µM (inactive)
COLO 205
  GI50: 13.2 µM (inactive)
HCT-15
  GI50: 29.6 µM
ACHN
  GI50: 29.9 µM (inactive)
NCI-H23
  GI50: 30.2 µM (inactive)
TK-10
  GI50: 35.8 µM (inactive)
HOP-62
  GI50: 36.9 µM (inactive)
MDA-MB-231
  GI50: 20.9 µM (inactive)
NCI-H460
  GI50: 27.7 µM (inactive)
U-251
  GI50: 29.4 µM (inactive)
MDA-N
  GI50: 27.9 µM (inactive)
KM12
  GI50: 29.6 µM (inactive)
EKVX
  GI50: 30.8 µM (inactive)
NCI/ADR-RES
  GI50: 28.7 µM (inactive)
SK-OV-3
  GI50: 25.2 µM (inactive)
M14
  GI50: 49.7 µM (inactive)
NCI-H522
  GI50: 24.5 µM (inactive)
M19-MEL
  GI50: 28.3 µM (inactive)
SF-295
  GI50: 25.7 µM (inactive)
DLD-1
  GI50: 34.1 µM (inactive)
K562
  GI50: 29.8 µM (inactive)
SW-620
  GI50: 37.4 µM (inactive)
SF-268
  GI50: 27.2 µM (inactive)
SK-MEL-2
  GI50: 20.1 µM (inactive)
UO-31
  GI50: 31.5 µM (inactive)
SN12C
  GI50: 29.4 µM (inactive)
RPMI-8226
  GI50: 27 µM (inactive)
A498
  GI50: 30.1 µM (inactive)
SNB-78
  GI50: 41.2 µM (inactive)
BT-549
  GI50: 27.6 µM (inactive)
OVCAR-8
  GI50: 34.8 µM (inactive)
LOX IMVI
  GI50: 38.6 µM (inactive)
SNB-75
  GI50: 22.3 µM (inactive)
UACC-257
  GI50: 27.2 µM (inactive)
LXFL 529
  GI50: 41.8 µM (inactive)
XF498
  GI50: 31.9 µM (inactive)
HOP-18
  GI50: 18.8 µM (inactive)
OVCAR-4
  GI50: 36.7 µM (inactive)
T47D
  GI50: 11.9 µM (inactive)
SF-539
  GI50: 24.5 µM (inactive)
SK-MEL-28
  GI50: 40.2 µM (inactive)
NCI-H226
  GI50: 90.8 µM (inactive)
HL-60
  GI50: 41.3 µM (inactive)
OVCAR-3
  GI50: 17.9 µM (inactive)
HT-29
  GI50: 37.4 µM (inactive)
HCC 2998
  GI50: 26.9 µM (inactive)
MDA-MB-435
  GI50: 23.3 µM (inactive)
HCT-116
  GI50: 29.5 µM (inactive)
DMS-114
  GI50: 31 µM (inactive)
OVCAR-5
  GI50: > 63.5 µM (inactive)
PC-3
  GI50: 26.1 µM (inactive)

## O=C(Cc1nc2ccccc2s1)C(=O)Nc1ccccc1C(F)(F)F
IGROV-1
  GI50: > 100 µM (inactive)
CCRF-CEM
  GI50: > 100 µM (inactive)
CAKI-1
  GI50: > 100 µM (inactive)
SNB-19
  GI50: > 100 µM (inactive)
DMS-273
  GI50: > 100 µM (inactive)
786-0
  GI50: > 100 µM (inactive)
UACC-62
  GI50: > 100 µM (inactive)
Malme-3M
  GI50: > 100 µM (inactive)
A549
  GI50: > 100 µM (inactive)
SK-MEL-5
  GI50: > 100 µM (inactive)
HOP-92
  GI50: 20.4 µM (inactive)
MOLT-4
  GI50: > 100 µM (inactive)
RXF 393
  GI50: > 100 µM (inactive)
COLO 205
  GI50: > 100 µM (inactive)
HCT-15
  GI50: > 100 µM
ACHN
  GI50: > 100 µM (inactive)
NCI-H23
  GI50: > 100 µM (inactive)
TK-10
  GI50: > 100 µM (inactive)
HOP-62
  GI50: > 100 µM (inactive)
NCI-H460
  GI50: > 100 µM (inactive)
U-251
  GI50: > 100 µM (inactive)
KM12
  GI50: > 100 µM (inactive)
EKVX
  GI50: > 100 µM (inactive)
SK-OV-3
  GI50: > 100 µM (inactive)
M14
  GI50: > 100 µM (inactive)
NCI-H522
  GI50: > 100 µM (inactive)
M19-MEL
  GI50: > 100 µM (inactive)
SF-295
  GI50: > 100 µM (inactive)
DLD-1
  GI50: > 100 µM (inactive)
K562
  GI50: > 100 µM (inactive)
SW-620
  GI50: > 100 µM (inactive)
SF-268
  GI50: > 100 µM (inactive)
SK-MEL-2
  GI50: > 100 µM (inactive)
UO-31
  GI50: > 100 µM (inactive)
SN12C
  GI50: > 100 µM (inactive)
A498
  GI50: > 100 µM (inactive)
SNB-78
  GI50: > 100 µM (inactive)
OVCAR-8
  GI50: > 100 µM (inactive)
LOX IMVI
  GI50: > 100 µM (inactive)
SNB-75
  GI50: 25.1 µM (inactive)
UACC-257
  GI50: > 100 µM (inactive)
LXFL 529
  GI50: > 100 µM (inactive)
XF498
  GI50: > 100 µM (inactive)
HOP-18
  GI50: > 100 µM (inactive)
OVCAR-4
  GI50: > 100 µM (inactive)
SF-539
  GI50: > 100 µM (inactive)
SK-MEL-28
  GI50: > 100 µM (inactive)
NCI-H226
  GI50: > 100 µM (inactive)
HL-60
  GI50: > 100 µM (inactive)
OVCAR-3
  GI50: > 100 µM (inactive)
KM-20L2
  GI50: > 100 µM (inactive)
HT-29
  GI50: > 100 µM (inactive)
HCC 2998
  GI50: > 100 µM (inactive)
HCT-116
  GI50: > 100 µM (inactive)
DMS-114
  GI50: > 100 µM (inactive)
OVCAR-5
  GI50: > 100 µM (inactive)

Source: ChEMBL document CHEMBL1201862, “PubChem BioAssay data set” (2004)
